{"source": "patent US6294649A", "about": "“Method of cell inhibition using polypeptides derived from the venom of the Austrialian jumper ant Myrmecia pilosula” (Northern Sydney Area Health Service, priority 1996, dated 2001)", "key": {"Red blood cells": {"tested_on": "Red blood cells", "assay": "Red blood cell lysis", "assay_type": "cell-based", "details": "1% (v/v) red blood cells in PBS; peptides 0.3125-80 μM", "experimental": "Red blood cells were prepared from fresh whole blood. Red blood cells were diluted to 1% (v/v) with PBS and 0.1 mL aliquots added to a 96 well microtitre plate. Venom and venom peptides were added in 5 μL of normal saline. Whole ant venom concentration (final): 80, 40, 20, 10, 5, 2.5, 1.25, 0.625, 0.3125 4μg/mL. Venom peptide concentration (final): 80, 40, 20, 10, 5, 2.5, 1.25, 0.625, 0.3125 μM."}, "EBV-transformed B-cells": {"tested_on": "EBV-transformed B-cells", "assay": "Flow cytometry cell viability (propidium iodide exclusion)", "assay_type": "cell-based, human", "details": "5 μM, treated for 5 minutes; untreated control about 15% permeable", "experimental": "(§1) Cell proliferation and flow cytometry have been used to determine the cytotoxic effects on cells. Cell proliferation involves growing cells to log-phase growth and adding Pilosulin 1 at different final peptide concentrations and ^3 H-methyl thymidine at the same time. The cells are incubated at 37° C. for 16 hours, harvested, lysed and washed and the cells liquid scintillation counted. Flow cytometry employs the exclusion of propidium iodide from cells as an index of their viability. In experiments where fluorescent labelled monoclonal antibodies recognising cell specific markers were used, exclusion of 7-actinomycin D was used as the index of cell viability. In these latter experiments cells were incubated with the fluorescent antibodies and then washed to remove unbound antibodies. The treated cells were stored on ice and Pilosulin 1 added 5 minutes prior to flow cytometric measurement.\nFlow cytometry can measure cell viability by their ability to exclude a fluorescent dye such as propidium iodide or 7-actinomycin D. EBV-transformed B-cells were cultured to log-phase growth and venom and venom peptides added. […] Cells were treated for 5 minutes with Pilosulin 1, Pilosulin 2 and melittin over a concentration range of 0.1 to 10 μM and then cell numbers were measured in the flow cytometer."}, "[1]": {"tested_on": "Antibody-labelled (CD3-FITC) white blood cells (T-cell)", "assay": "Kinetics of cell killing at different temperatures (7-AAD, flow cytometry)", "assay_type": "cell-based", "details": "3 μM melittin", "experimental": "The kinetics of Pilosulin 1 and melittin cell killing at different temperatures were investigated. Antibody-labelled (CD3-FITC) white blood cells were incubated with 7-AAD (4 μg/mL) and either 1.5 μM Pilosulin 1 or 3 μM melittin. Three tubes were prepared for each peptide and the tubes were incubated at either 0° C. (circles), room temperature (triangles), or 37° C. (diamonds). Samples of each tube were analysed on a flow cytometer at time zero and thereafter at 2, 5 10 and 15 minutes."}, "[2]": {"tested_on": "Epstein Barr-transformed human B-cells", "assay": "Cell proliferation (3H-methyl-thymidine)", "assay_type": "cell-based", "experimental": "as §1\nEpstein Barr-transformed human B-cells grown to log phase. One hundred […] of cells (10^5 cells) were placed in the wells of microtitre plates. Venom and venom peptides added to the wells in […] to give final concentrations used in the red cell lysis experiment. One μCi of ^3 H-methyl-thymidine was added to the wells and the plates incubated overnight at 37° C. Cells harvested 17 hr later and counted."}, "granulocyte population": {"tested_on": "granulocyte population", "assay": "Relative cytotoxicity for leucocyte components, flow cytometry (7-actinomycin D uptake)", "assay_type": "cell-based", "experimental": "as §1\nThe relative cytotoxicity of Pilosulin 1 for the different components of the leucocyte population was studied and the results are shown in FIG. 3."}, "[3]": {"tested_on": "solid tumour cell lines including a breast cancer, a brain tumour and a kidney cell tumour line", "assay": "Cytotoxicity for solid tumour cell lines", "assay_type": "cell-based", "experimental": "as §1"}, "[4]": {"tested_on": "normal blood cells, in particular, lymphocytes monocytes and natural killer cells", "assay": "Cytotoxicity for normal blood cells", "assay_type": "cell-based", "experimental": "as §1"}, "[5]": {"tested_on": "cancer cells of myeloid and lymphoid origin", "assay": "Cytotoxicity towards cancer cells", "assay_type": "cell-based", "details": "in particular rapidly dividing cancer cells of myeloid and lymphoid origin"}, "cells": {"tested_on": "cells", "assay": "Cytotoxicity to cells (cell proliferation and flow cytometry)", "assay_type": "cell-based", "details": "cells tested", "experimental": "as §1"}}, "note": "Like-named read-outs stand apart in the source and are kept apart here. No end group written: not given here.", "data": [{"molecule": "CC[C@H](C)[C@H](NC(=O)CN)C(=O)NCC(=O)N[C@@H](C)C(=O)N[C@H](C(=O)N[C@@H](CC(C)C)C(=O)N[C@@H](CCCCN)C(=O)N[C@H](C(=O)N[C@@H](CC(C)C)C(=O)N[C@H](C(=O)N[C@H](C(=O)NCC(=O)N[C@@H](CC(C)C)C(=O)N1CCC[C@H]1C(=O)N[C@@H](C)C(=O)N[C@@H](CC(C)C)C(=O)N[C@H](C(=O)N[C@@H](CO)C(=O)N[C@@H](Cc1c[nH]c2ccccc12)C(=O)N[C@H](C(=O)N[C@@H](CCCCN)C(=O)N[C@@H](CCCNC(=N)N)C(=O)N[C@@H](CCCCN)C(=O)N[C@@H](CCCNC(=N)N)C(=O)N[C@@H](CCC(N)=O)C(=O)N[C@@H](CCC(N)=O)C(N)=O)[C@@H](C)CC)[C@@H](C)CC)[C@@H](C)O)[C@@H](C)O)C(C)C)C(C)C", "note": "[Melittin]", "values": [{"measurement": "efficiency on a molar basis in the lysis of red blood cells", "setting": "Red blood cells", "result": "most efficient"}, {"measurement": "% Viable Cells", "setting": "EBV-transformed B-cells", "result": 53.5, "unit": "%"}, {"measurement": "cells killed", "setting": "[1]; 0° C., 10 minutes", "result": 25, "unit": "%"}, {"measurement": "cells killed", "setting": "[1]; 37° C., 2 minutes", "result": "all cells were killed"}, {"measurement": "cells killed", "setting": "[1]; room temperature, 2 minutes", "result": 85, "unit": "%"}, {"measurement": "cells killed", "setting": "[1]; room temperature, 5 minutes", "result": "killed all cells"}]}, {"molecule": "GLGSVFGRLARILGRVIPKVAKKLGPKVAKVLPKVMKEAIPMAVEMAKSQEEQQPQ [Pilosulin 1]", "values": [{"measurement": "cytotoxicity for proliferating Epstein-Barr Virus transformed B-cells", "setting": "[2]", "result": "cytotoxic"}, {"measurement": "effectiveness as a cytotoxin at 50% cell viability (relative)", "setting": "[2]; 3H-methyl-thymidine, overnight at 37° C., comparator not named", "result": "approximately 4 times"}, {"measurement": "cytotoxicity for granulocytes", "setting": "granulocyte population", "result": "resistant"}, {"measurement": "cytotoxicity for solid tumour cell lines", "setting": "[3]", "result": "cytotoxic"}, {"measurement": "cytotoxicity for normal blood cells", "setting": "[4]", "result": "low"}, {"measurement": "cytotoxicity for normal blood cells", "setting": "[4]; listed as Pilostilin 1", "result": "cytotoxic"}, {"measurement": "cytotoxicity towards cancer cells", "setting": "[5]", "result": "potent cytotoxicity"}]}, {"molecule": "KLGPKVAKVLPKVMKEAIPMAVEMAKSQEEQQPQ [peptide 2]", "values": [{"measurement": "cytotoxicity to cells", "setting": "cells", "result": "no detectable cytotoxicity"}]}]}
